Reference: US7439363B2, “Substituted indazoly(indoly)maleimide derivatives as kinase inhibitors” (Janssen Parmaceutica N.V., priority 2003, dated 2008)

Key:
Format in all cases: biochemical
PKC isoform α = PKC isoform α (Homo sapiens, UniProt P17252); test: Protein Kinase C histone-based assay, PKC alpha; conditions: histone III substrate, 30 μM ATP
Protocol: (§1) Protein Kinase C Histone-Based Assay
(§2) Compounds were evaluated for PKC selectivity using histone III as the substrate. The PKC isoforms α, β-II or γ were added to a reaction mixture that contained 20 mM HEPES, (pH 7.4), 940 μM CaCl2, 10 mM MgCl2, 1 mM EGTA. 100 μg/mL phosphatidylserine, 20 μg/mL diacylglycerol, 30 μM ATP, 1 μCi (^33P)ATP and 200 μg/mL histone III. The reaction was incubated for 10 min at 30° C. Reactions were terminated by TCA precipitation and spotting on Whatman P81 filters. Filters were washed in 75 mM phosphoric acid and the radioactivity quantified by liquid scintillation counting.

[1] = biological target: T1, recombinant rabbit GSK-3β protein (Oryctolagus cuniculus, UniProt G1T8E2); test: Glycogen Synthase Kinase-3 assay (PPI-2 phosphorylation); conditions: for IC50: PPI-2 substrate, 33P-ATP
T1 construct: purchased New England Biolabs
Protocol: Glycogen Synthase Kinase-3 Assay
Compounds were tested for the ability to inhibit recombinant rabbit GSK-3β protein using the following protocol. The test compound was added to a reaction mixture containing Protein phosphatase inhibitor-2 (PPI-2) (Calbiochem) (45 ng), rabbit GSK-3β protein (New England Biolabs) (0.75 units) and ^33P-ATP (1 μCi) in 50 mM Tris-HCl (pH 8.0), 10 mM MgCl2, 0.1% BSA, 1 mM DTT and 100 μM Sodium Vanadate. The mixture was reacted for 90 minutes at 30° C. to allow phosphorylation of the PPI-2 protein and then the protein in the reaction was precipitated using 10% TCA. The precipitated protein was collected on filter plates (MultiScreen-DV/Millipore), which were subsequently washed. Finally, the radioactivity was quantified using a TopCount Scintillation Counter (Packard). […] Staurosporine or Valproate, known inhibitors of GSK-3β, were used as a positive control for screening.

PKC isoform β-II = PKC isoform β-II (Homo sapiens, UniProt P05771); test: Protein Kinase C histone-based assay, PKC beta II; conditions: histone III substrate, 30 μM ATP
Protocol: as §1, §2

PKC isoform γ = PKC isoform γ (Homo sapiens, UniProt P05129); test: Protein Kinase C histone-based assay, PKC gamma; conditions: histone III substrate, 30 μM ATP
Protocol: as §1, §2

T1 sequence (G1T8E2 1-432): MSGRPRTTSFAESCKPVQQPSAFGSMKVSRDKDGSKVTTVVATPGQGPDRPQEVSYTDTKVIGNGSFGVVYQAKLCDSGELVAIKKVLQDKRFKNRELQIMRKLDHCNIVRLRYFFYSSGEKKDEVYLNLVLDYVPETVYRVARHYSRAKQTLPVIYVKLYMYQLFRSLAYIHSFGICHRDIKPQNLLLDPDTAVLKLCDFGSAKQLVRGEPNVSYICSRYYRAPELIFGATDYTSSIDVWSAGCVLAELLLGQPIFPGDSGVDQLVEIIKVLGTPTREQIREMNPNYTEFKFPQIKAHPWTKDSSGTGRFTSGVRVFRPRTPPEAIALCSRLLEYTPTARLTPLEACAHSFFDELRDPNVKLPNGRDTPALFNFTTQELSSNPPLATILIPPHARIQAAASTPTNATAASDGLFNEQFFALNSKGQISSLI
Chain of PKC isoform β-II (P05771 1-673 isoform P05771-2): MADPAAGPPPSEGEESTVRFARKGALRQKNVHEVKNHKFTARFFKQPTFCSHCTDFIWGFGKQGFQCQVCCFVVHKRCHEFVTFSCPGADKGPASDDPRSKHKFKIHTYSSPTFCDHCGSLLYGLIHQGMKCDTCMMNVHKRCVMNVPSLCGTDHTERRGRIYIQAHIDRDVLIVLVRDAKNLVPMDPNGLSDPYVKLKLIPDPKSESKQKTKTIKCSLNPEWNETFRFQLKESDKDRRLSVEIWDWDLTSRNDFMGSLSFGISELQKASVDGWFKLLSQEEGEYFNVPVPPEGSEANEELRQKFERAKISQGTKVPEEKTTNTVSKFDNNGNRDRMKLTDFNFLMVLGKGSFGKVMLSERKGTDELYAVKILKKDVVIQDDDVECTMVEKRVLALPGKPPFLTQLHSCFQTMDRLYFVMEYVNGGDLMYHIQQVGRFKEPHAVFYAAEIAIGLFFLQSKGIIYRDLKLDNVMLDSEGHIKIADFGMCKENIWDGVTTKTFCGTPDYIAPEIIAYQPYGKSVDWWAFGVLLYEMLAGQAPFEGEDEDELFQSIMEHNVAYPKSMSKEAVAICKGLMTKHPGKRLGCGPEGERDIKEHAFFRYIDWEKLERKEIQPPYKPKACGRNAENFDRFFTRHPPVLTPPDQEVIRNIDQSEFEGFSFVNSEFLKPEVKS

| SMILES | IC50 (PKC isoform α) [µM] | IC50 [1] [µM] | IC50 (PKC isoform β-II) [µM] | IC50 (PKC isoform γ) [µM] | GSK-3β Assay Activity, % @ 1 μM ([1]; @ 1 μM) [% @ 1 μM] |
| --- | --- | --- | --- | --- | --- |
| Cn1cc(C2=C(c3nn(CCCn4ccnc4)c4ccccc34)C(=O)NC2=O)c2cc(Cl)ccc21 [Compound 1, 3-(5-Chloro-1-methyl-1H-indol-3-yl)-4-[1-(3-imidazol-1-yl-propyl)-1H-indazol-3-yl]-pyrrole-2,5-dione] | 0.567 | 0.004 | 0.015 | 0.476 |  |
| O=C1NC(=O)C(c2nn(CCc3nnn[nH]3)c3ccccc23)=C1c1cn(-c2cccnc2)c2ccc(Cl)cc12 [Compound 12] | 0.554 | 0.107 | 0.069 | 0.226 |  |
| O=C1NC(=O)C(c2nn(CCCn3ncnn3)c3ccccc23)=C1c1cn(-c2cccnc2)c2ccccc12 [Compound 7, 3-(1-Pyridin-3-yl-1H-indol-3-yl)-4-[1-(3-tetrazol-2-yl-propyl)-1H-indazole-3-yl]-pyrrole-2,5-dione] | 0.451 | 0.027 | 0.044 | 1.45 |  |
| Cn1cc(C2=C(c3nn(CCCn4ccnn4)c4ccccc34)C(=O)NC2=O)c2cc(Cl)ccc21 [Compound 2, 3-(5-Chloro-1-methyl-1H-indole-3-yl)-4-[1-(3-[1,2,3]triazole-1-yl-propyl)-1H-indzol-3-yl]-pyrrole-2,5-dione] | 1.21 | 0.003 | 0.046 | 0.395 |  |
| Cn1cc(C2=C(c3nn(CCCn4ncnn4)c4ccccc34)C(=O)NC2=O)c2cc(Cl)ccc21 [Compound 3, 3-(5-Chloro-1-methyl-1H-indol-3-yl)-4-[1-(3-tetrazol-2-yl-propyl)-1H-indazol-3-yl]pyrrole-2,5-dione] | 2.35 | 0.004 | 0.045 | 1.01 |  |
| Cn1cc(C2=C(c3nn(CCc4nnn[nH]4)c4ccccc34)C(=O)NC2=O)c2cc(Cl)ccc21 [Compound 11, 3-(5-Chloro-1-methyl-1H-indol-3-yl)-4-{1-[2-(1H-tetrazol-5-yl)-ethyl]-1H-indazol-3-yl)-pyrrole-2,5-dione] | 1.36 | 0.005 | 0.123 | 1.93 |  |
| Cc1nnn(CCCn2nc(C3=C(c4cn(C)c5ccc(Cl)cc45)C(=O)NC3=O)c3ccccc32)n1 [Compound 9] | 2.98 | 0.005 | 0.041 | 1.42 |  |
| O=C1NC(=O)C(c2nn(CCCn3cnnn3)c3ccccc23)=C1c1cn(-c2ccc3ccccc3c2)c2ccccc12 [Compound 6, 3-(1-Naphthalen-2-yl-1H-indol-3-yl)-4-[1-(3-tetrazol-1-yl-propyl)-1H-indazol-3-yl]pyrrole-2,5-dione] | 0.326 |  | 0.022 | 1.11 | 29 |
| O=C1NC(=O)C(c2nn(CCCn3ncnn3)c3ccccc23)=C1c1cn(-c2ccc3ccccc3c2)c2ccccc12 [Compound 5, 3-(1-Naphthalen-2-yl-1H-indole-3-yl)-4-[1-(3-tetrazol-2-yl-propyl)-1H-indazol-3-yl]-pyrrole-2,5-dione] | 0.542 | 0.776 | 0.025 | 1.7 |  |
| O=C1NC(=O)C(c2nn(CCCn3cnnn3)c3ccccc23)=C1c1cn(-c2cccnc2)c2ccccc12 [Compound 8, 3-(1-Pyridin-3-yl-1H-indol-3-yl)-4-[1-(3-tetrazol-1-yl-propyl)-1H-indazol-3-yl]-pyrrole-2,5-dione] | 1.04 | 0.034 | 0.052 | 4.3 |  |
| Cc1nnnn1CCCn1nc(C2=C(c3cn(C)c4ccc(Cl)cc34)C(=O)NC2=O)c2ccccc21 [Compound 10] | 0.424 | 0.005 | 0.009 | 0.602 |  |
| Cn1cc(C2=C(c3nn(CCCn4cnnn4)c4ccccc34)C(=O)NC2=O)c2cc(Cl)ccc21 [Compound 4, 3-(5-Chloro-1-methyl-1H-indol-3-yl)-4-[1-(3-tetrazol-1-yl-propyl)-1H-indazol-3-yl]-pyrrole-2,5-dione] | 0.505 | 0.004 | 0.035 | 0.544 |  |
